These results are taken from patent US4091097A, “Treatment of elevated histamine and uric acid levels” (Zaidan Hojin Biseibutsu Kagaku Kenkyu Kai, priority 1973, dated 1978).

Read-outs that look alike come from different tables or passages of the source.

One series concerns mice and rats. Conditions: in vivo. The procedure:
(§1) The acute toxicity was determined for oral and intraperitoneal administration with mice and rats (6 mice and 2 rats in one dose group), and the LD50 value, i.e., the single application dose killing 50% of the test animals, was estimated.

Series [1] deals with T1, histidine decarboxylase (Rattus norvegicus, UniProt P16453).
T1 construct: a crude enzyme preparation obtained from fetal rats; from tissue
T1 sequence (P16453 1-656): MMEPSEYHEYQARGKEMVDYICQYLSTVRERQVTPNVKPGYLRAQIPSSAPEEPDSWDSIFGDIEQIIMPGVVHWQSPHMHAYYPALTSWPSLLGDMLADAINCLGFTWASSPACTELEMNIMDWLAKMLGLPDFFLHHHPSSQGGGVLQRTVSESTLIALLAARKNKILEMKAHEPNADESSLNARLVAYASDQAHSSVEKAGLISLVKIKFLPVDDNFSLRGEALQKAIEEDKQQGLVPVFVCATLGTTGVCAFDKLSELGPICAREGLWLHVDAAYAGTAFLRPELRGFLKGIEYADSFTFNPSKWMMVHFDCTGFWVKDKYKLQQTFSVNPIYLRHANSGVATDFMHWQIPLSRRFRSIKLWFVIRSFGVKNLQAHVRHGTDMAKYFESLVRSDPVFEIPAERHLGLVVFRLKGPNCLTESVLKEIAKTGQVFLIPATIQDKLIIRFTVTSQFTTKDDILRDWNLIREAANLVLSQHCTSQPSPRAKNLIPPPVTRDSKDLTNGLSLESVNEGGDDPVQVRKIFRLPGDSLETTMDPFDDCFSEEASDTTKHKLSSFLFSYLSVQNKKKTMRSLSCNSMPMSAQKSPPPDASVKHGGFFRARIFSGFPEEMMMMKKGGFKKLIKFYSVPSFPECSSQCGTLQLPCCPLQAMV
Description: Inhibition of Histidine Decarboxylase (14C-histamine formation). In kind it is biochemical, fetal rats. How it is done:
After two hours of incubation at 37° C., the histamine 2-^14 C formed was collected on an ion exchange resin ("Amberlite" CG-50, ammonia type) from which, after washing with water, the histamine was liberated in 1N aqueous ammonia solution and radioactivity was measured.

The subject of series [2] is acetic acid-induced stretching movements. Description: Analgesic Activity in mice (acetic acid stretching). It counts as in vivo, mice (DDY Strain). Conditions: control (no drug) 53. How it is done:
Male mice of the DDY Strain having mean body weight of 20 g. were divided to the groups of 10 animals each, to which compounds of this invention or aminopyrine in saline solution were administered intraperitoneally (i.p.). The dosage was 200, 50 or 12.5 mg./kg. Then 30 minutes later, 0.2 ml. per 20 g. body weight of 0.7% acetic acid in saline was injected intraperitoneally and the number of characteristic stretching movements counted for 20 minute period and compared with a control group receiving no analgesic.

The subject of series [3] is pyrexia induced by TTG No. 2. As to the kind of experiment: Antipyretic Activity in Pyrexia-Induced Rabbits. In kind it is in vivo, Japanese rabbits. The settings on record: 200 mg./kg. oral. The procedure: Common white male Japanese rabbits, 2.0 - 3.0 kg. body weight, were injected through the ear vein with 20 μg./kg. of a pyrexia inducer TTG No. 2, purified polysaccharide preparation obtained from Pseudomonas aeruginosa (marketed by Fujisawa Pharmaceutical Company, Japan), and the body temperature was monitored with a rectal thermister-type thermometer. Three hours prior to the TTG injection four rabbits in each experimental section orally received the test drug in the dose of 200 mg./kg. One group received aspirin in a dose of 100 mg./kg and a control group no drug.

In series [4] the test system is anaphylactic shock (egg albumin). As to the kind of experiment: Effect on the Anaphylactic Shock in Mice. In kind it is in vivo, mice (DDY Strain).
Description: DDY Strain mice were sensitized by subcutaneous injection of a mixture of 0.1 ml. (100 μg.) egg albumin (Nutritional Biochemical Corp. U.S.A., 5 times crystallized) and 0.1 ml. Freund's complete adjuvant (Difco Co., U.S.A.) in saline. The mice were used for the test 3 months thereafter. The sensitized animals were divided in 3 groups of 4 animals each, which were subcutaneously administered the test compound several times before antigen challenge to cause anaphylactic shock. Group 1 received 100 mg./kg. 19 hours before and 50 mg./kg. 9, 4 and 1 hour before challenge. Group 2 received 100 mg./kg. 9 hours before and 50 mg./kg. 4 and 1 hour before challenge. Group 3 was a control group and received only saline solution.
For the next series, the system named is rats. Description: Subacute toxicity, daily doses for 32 consecutive days. In kind it is in vivo. Conditions: 3.1, 12.5, 50 and 200 mg./kg. daily, oral or i.p., 32 days.
In series [5] the test system is animals. The settings on record: cited from earlier work.
Series [6] has as its system animals. Conditions: cited from earlier work. The source holds these as a separate data set.
In series [7] the test system is histidine decarboxylase. The settings on record: cited from earlier work.
The nature of a further series: Acute toxicity, rats. The settings on record: rat, in vivo, printed 'for oral administration', then first of 'respective administration'. The procedure: as §1
Setting [8] is: 2 hrs. after TTG, control (no drug) 1.2.
[9] abbreviates: 4 hrs. after TTG, control (no drug) 1.6.
[10] abbreviates: pH 6.8, two hours at 37° C., read-out: Histidine Decarboxylase Inhibition ID50.
[11] abbreviates: Group 1 (100 mg./kg. 19 h, 50 mg./kg. 9, 4, 1 h before), mouse 1, control 5.
The mark [12] stands for this setting: Group 2 (100 mg./kg. 9 h, 50 mg./kg. 4, 1 h before), mouse 1, control 5.

As for `O=C(Nc1cc(Br)c(O)c(Br)c1)c1ccccc1O` [Compound 3], in the series with mice and rats, the comparative toxicity entry is given as “comparatively more toxic than the others”. The same molecule yielded an IC50 against histidine decarboxylase [1] of 0.023 µM. Besides, the “Analgesic Activity: Stretching Count (20 minutes)” value (from here on “Analgesic Activity”) in series [2] (50 mg./kg. i.p.) stood at 17; in [2] (200 mg./kg. i.p.), 6. Further, the “Antipyretic Activity: Elevation of Body Temperature” value (“Antipyretic Activity: Elevation” for short) in [3] (setting [8]) is 0.6 °C; in series [3] (setting [9]) it was 0.5 °C.

`O=C(Nc1cc(Br)c(O)c(C(=O)O)c1)c1ccccc1O` [Compound 6]: the comparative toxicity entry with mice and rats was “comparatively more toxic than the others”. Moreover, the IC50 on histidine decarboxylase [1] (setting [10]) came out at 0.26 µM. Besides, the “Analgesic Activity” value in series [2] (50 mg./kg. i.p.) was determined as 25; in series [2] (200 mg./kg. i.p.) it was 12. The “Antipyretic Activity: Elevation” value in series [3] (setting [8]) and in series [3] (setting [9]) was 0.5 °C throughout.

With `CCC(=O)Oc1ccccc1C(=O)Nc1cc(Cl)c(OC(=O)CC)c(Cl)c1` [Compound 33], the “Symptoms emerged, time after challenge” value in series [4] (setting [11]) was 10 min; in series [4] (Group 1, mouse 2, control 3), 25 min; in series [4] (Group 1, mouse 3, control 7), 30 min; in series [4] (setting [12]), 20 min; in series [4] (Group 2, mouse 2, control 3) it was 20 min; in series [4] (Group 2, mouse 3, control 7), 30 min. The “Died, time after challenge” value in series [4] (Group 1, mouse 1, control 15) was 30 min; in series [4] (Group 2, mouse 1, control 15) it was 40 min; in [4] (Group 2, mouse 2, control 20), 45 min; in series [4] (Group 2, mouse 4, control 20) it was 40 min. Besides, the IC50 on histidine decarboxylase [1] (setting [10]) came to 0.039 µM. The “Analgesic Activity” value in [2] (50 mg./kg. i.p.) stood at 12; in [2] (200 mg./kg. i.p.) it was 5. Further, in the series with rats, the “disease symptoms or abnormality attributable to drug dosing” value is recorded as “no particular disease symptoms or abnornality attributable to the drug dosing was noted”. The weight gain result with rats is listed as “the weight gain was normal”. For the same molecule, the “Antipyretic Activity: Elevation” value in [3] (setting [8]) is 0.6 °C; in [3] (setting [9]) it was 0.5 °C.

Consider `Cc1cc(OC(=O)c2c(C)cc(O)cc2O)cc(O)c1C(=O)O` [Lecanoric acid, 4'-carboxy-2,3'-dimethyl-4,6,5'-trihydroxyphenylbenzoate], for which the hydrolysis in animals entry in the series on animals [5] is listed as “hydrolysed in animals”. In addition, the “anti-inflammatory activity (in words)” value in the series with animals [6] is on record as “only weak anti-inflammatory activity”. Moreover, in the series with histidine decarboxylase [7], the “inhibitory activity to histidine decarboxylase (in words)” value was “strong inhibitory activity”.

The LD50 is the dose at which mortality reaches 50%. `O=C(Nc1cc(Cl)c(O)c(Cl)c1)c1ccccc1O` [Compound 1]: the “Symptoms emerged, time after challenge” value in series [4] (setting [11]) is 15 min; in series [4] (Group 1, mouse 2, control 3), 20 min; in [4] (setting [12]), 35 min; in series [4] (Group 2, mouse 2, control 3), 10 min; in [4] (Group 2, mouse 3, control 7), 25 min; in series [4] (Group 2, mouse 4, control 3) it was 20 min. Moreover, the “Died, time after challenge” value in series [4] (Group 1, mouse 1, control 15) worked out at 30 min; in series [4] (Group 1, mouse 2, control 20), 35 min; in series [4] (Group 2, mouse 2, control 20) it was 30 min; in [4] (Group 2, mouse 4, control 20), 40 min. In addition, at histidine decarboxylase [1], the IC50 came to 0.022 µM. For the same molecule, the “Analgesic Activity” value is given as 11 in series [2] (50 mg./kg. i.p.) and 4 in series [2] (200 mg./kg. i.p.). This molecule showed an LD50 in “Acute toxicity, rats” of 2200 mg/kg. In the series with rats, the “disease symptoms or abnormality attributable to drug dosing” value is “no particular disease symptoms or abnornality attributable to the drug dosing was noted”. The weight gain entry in the series with rats was “the weight gain was normal”. The “Antipyretic Activity: Elevation” value worked out at 0.6 °C in series [3] (setting [8]) and 0.5 °C in series [3] (setting [9]).
